Data from patent US20110124626A1, “BENZAZEPINE DERIVATIVES AND THEIR USE AS HISTAMINE H3 ANTAGONISTS” (TAKEDA PHARMACEUTICAL COMPANY LIMITED, priority 2008, published 2011).

Key:
human H3 receptor [1] = molecular target: T1, human H3 receptor (Homo sapiens, UniProt Q9Y5N1); assay: In vitro H3 binding assay (3H-N-α-methyl-histamine competition binding); conditions: membranes of CHO-K1 cells expressing human H3 receptor; 2 nM 3H-NαMH; read-out: hH3 binding IC50
T1 construct: expressed in transfected cells
Method in brief: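 Membranes from CHO-K1 cells stably expressing human H3 (5 μg/well) incubated 1 h at room temperature with compound and 2 nM ³H-NαMH in 50 mM Tris-HCl pH 7.4, 5 mM MgCl2; non-specific binding defined with 1 μM RαMH. Bound radioactivity measured by filtration and scintillation; IC50 from seven-point curves by variable-slope sigmoidal regression.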

human H3 receptor [2] = molecular target: T1, human H3 receptor; assay: In vitro H3 functional assay (cAMP response element driven luciferase reporter); assay type: cell-based; conditions: CHO(dhfr+)-cre-luc cells expressing human H3 receptor; RαMH 10 nM, forskolin 1 μM; read-out: hH3 functional IC50
Method in brief: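 CHO-cre-luc cells stably expressing human H3 were preincubated 5 min with compound, then treated with RαMH (10 nM), IBMX (500 μM) and forskolin (1 μM) for 90 min at 37 °C. CRE-luciferase luminescence was read; IC50 from ten-point half-log curves in duplicate, four-parameter fit.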

T1 sequence (Q9Y5N1 whole entry): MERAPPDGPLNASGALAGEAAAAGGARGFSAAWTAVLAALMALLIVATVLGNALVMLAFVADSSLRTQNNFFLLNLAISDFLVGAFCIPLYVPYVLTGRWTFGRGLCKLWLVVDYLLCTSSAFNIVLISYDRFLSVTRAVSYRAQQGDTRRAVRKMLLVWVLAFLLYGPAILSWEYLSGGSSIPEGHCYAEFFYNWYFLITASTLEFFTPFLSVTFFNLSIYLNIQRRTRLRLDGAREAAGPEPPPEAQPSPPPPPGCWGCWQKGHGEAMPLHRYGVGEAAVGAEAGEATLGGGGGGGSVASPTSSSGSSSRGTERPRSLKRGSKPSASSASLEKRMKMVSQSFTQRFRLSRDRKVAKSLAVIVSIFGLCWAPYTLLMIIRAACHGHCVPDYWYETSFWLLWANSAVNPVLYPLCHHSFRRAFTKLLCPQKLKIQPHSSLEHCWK

IC50 (human H3 receptor [1]) [nM]	IC50 (human H3 receptor [2]) [nM]	SMILES
0.3	3	O=C(NCc1ccc2c(c1)CCN(C1CCC1)CC2)c1cnc(N2CCCC2)nc1 [Example 256, N-((3-cyclobutyl-2,3,4,5-tetrahydro-1H-benzo[d]azepin-7-yl)methyl)-2-(pyrrolidin-1-yl)pyrimidine-5-carboxamide]
25	10	COc1ccc(C(=O)NCc2ccc3c(c2)CCN(C2CC(O)C2)CC3)cn1 (stereo not drawn) [Example 262, N-((3-(3-hydroxycyclobutyl)-2,3,4,5-tetrahydro-1H-benzo[d]azepin-7-yl)methyl)-6-methoxynicotinamide]
18	6	Cc1noc(C)c1C(=O)NCc1ccc2c(c1)CCN(C1CCC1)CC2 [Example 263, N-[(3-cyclobutyl-2,3,4,5-tetrahydro-1H-3-benzazepin-7-yl)methyl]-3,5-dimethyl-1,2-oxazole-4-carboxamide]
6	4	C[C@@H]1CCCN1C(=O)NCc1ccc2c(c1)CCN(C1CCC1)CC2 [Example 265, (R)—N-((3-cyclobutyl-2,3,4,5-tetrahydro-1H-benzo[d]azepin-7-yl)methyl)-2-methylpyrrolidine-1-carboxamide]
61	34	O=C1CCCN1Cc1ccc2c(c1)CCN(C1CCC1)CC2 [Example 304, 1-((3-cyclobutyl-2,3,4,5-tetrahydro-1H-benzo[d]azepin-7-yl)methyl)pyrrolidin-2-one]
18	2	CCCOc1ccc(C(=O)NCc2ccc3c(c2)CCN(C2CCC2)CC3)cn1 [Example 306, N-((3-cyclobutyl-2,3,4,5-tetrahydro-1H-benzo[d]azepin-7-yl)methyl)-6-propoxynicotinamide]
